Consider 1 molecule from patent US7825104B2, “Methods and compositions for treating fungal infections” (Ramot at Tel Aviv University Ltd., priority 2001, dated 2010).

For one data set, the system named is Trichophyton rubrum. The data set can be described thus: in vitro fungicidal/fungistatic test on T. rubrum cultures. The conditions noted are these: concentration range of 5-10 mg/ml tested. The data set is classed as cell-based. As for the experimental part:
An in vitro test was designed for testing the fungicidal or fungistatic activity of PBA and its water-soluble derivatives. Cultures of T. rubrum were grown on 100 microliters SDB agar in a standard 96 well plate. Following an initial growth period of about 24 hours, each well was treated with 50-100 microliters of the reagent tested. Following an appropriate incubation period with or without washing, residual viability was estimated from comparison with appropriate controls, followed by secondary verification of viability tests by transfer of a part of the treated culture into a fresh well for optional recovery and growth. […] The photograph was taken four days after treatment.

In another data set the test system is Candida parapsilosis. The data set can be described thus: in vitro fungicidal/inhibitory effect on Candida parapsilosis. The data set is classed as cell-based.
For a further data set, the system named is Bacilus megaterium. Put plainly: in vitro effect on Bacillus megaterium (control, Cyt P-450 containing bacteria). The data set is classed as cell-based. The settings on record: solution of about 5-10 mg/ml.
For data set [1] the following is noted: ORL-RAT; cited from earlier work.
For data set [2] the following is noted: cited from earlier work.

Take `OB(O)c1ccccc1` [PBA, Phenyl boronic acid]: the “effect on T. rubrum” value in the data set on Trichophyton rubrum was “fungicidal”. Besides, the entries for the “effect on C. parapsylosis” value in the data set on Candida parapsilosis (5 mg/ml) and in the data set on Candida parapsilosis (10 mg/ml) were “fungistatic” and “fungicidal”, respectively. In addition, in the data set on Bacilus megaterium, the “activity against Bacillus megaterium” value is “antibiotic activity”. Also, the LD50 in data set [1] is reported as 740 mg/kg. Further, the solubility in water result in data set [2] is “reasonably soluble in water”.

The term LD50 denotes the dose expected to kill half of the subjects tested.
